Assay results reported in patent US20230374034A1, “NOVEL BICYCLIC COMPOUNDS” (PRISM BIOLAB CO., LTD., priority 2020, published 2023).

test system: NICD (Notch intracellular domain) CSL-bla reporter in HeLa cells; test: Notch assay (CellSensor T-REx NICD CSL-bla HeLa beta-lactamase reporter; Method 1 / Method 2); assay type: cell-based; settings: Homo sapiens, 10 μM compound, Method 1 (10× compound prepared in assay medium, added to plated cells), read-out: inhibiton (%) at 10 μM
Source text: We used the CellSensor T-REx™ NICD CSL-bla HeLa cell line, which was engineered by lentiviral transduction of HeLa cells with a Notch response element driving beta-lactamase reporter gene expression (CSL-bla) along with DOX (doxycycline)-inducible NICD (Notch intracellular domain) constructs. Addition of DOX to these cells allows for regulated NICD transcription factor expression and subsequent beta-lactamase expression.
Specifically, the following protocol was used.
NOTCH ASSAY PROTOCOL (Method 2)
• 1. Add 40 nL/well of working concentration of 1000× compound to 384-well assay plate with Echo. • 2. Plate Cells: 35 μl/well of HeLa/T-REx™ NICD CSL-bla cells at 10^3 cells/well complete medium into 384-well plate. • 3. Add 5 μl 8× Doxycycline in Assay Medium to the treated wells, and 5 μl Assay Medium to the Untreated and cell free control wells. • 4. Incubate the assay plate in a humidified 37° C./5% CO2 incubator for 16-20 hours. • 5. Preparation of 6× LiveBLAzer™-FRET B/G Substrate (CCF4-AM) Mixture according to the manual and cell loading should be done in the absence of direct strong lighting. • 6. Remove assay plate from the humidified 37° C./5% CO2 incubator. Add 8 μl of 6× Substrate Mixture from Step 5 to each well. Cover the plate to protect it from light and evaporation. Incubate at room temperature for 4 hours. • 7. Reading an Assay Plate using the following filter selections:
• 8. Data analysis: Use the assay plate layout to identify the location of the Cell-free wells. These control wells are used for background subtraction. Determine the average emission from the Cell-free wells at both 460 nm (Average Blue Background) and 530 nm(Average Green Background). Subtract the Average Blue Background (data collected at 460 nm) from all of the blue emission data. Subtract the Average Green background (data collected at 530 nm) from all of the green emission data. Calculate the Blue/Green Emission Ratio for each well, by dividing the background-subtracted blue emission values by the background-subtracted green emission values.
Instead of Step 1 to Step 3, the following Step a to Step d can also be performed. The subsequent steps are the same as Method 2, after Step 4 (Method 1). • a. Plate Cells: 32 μL/well of HeLa/T-REx™ NICD CSL-bla cells at 10^3 cells/well complete medium into 384-well plate. • b. Prepare 10× compounds in assay medium. • c. Add 4 μL compounds or 1% DMSO in assay medium to the cells. • d. Add 4 μL 10×Doxycycline in Assay Medium to the treated wells, and 4 μL Assay Medium to the Untreated and cell free control wells.
The results are shown in Table 13 (Table 13-1 to Table 13-2).

| Structure (SMILES) | inhibition at 10 µM [%] |
| --- | --- |
| CCCC[C@H]1C(=O)N(CCC(C)C)CC2N(C(=O)OCc3cccc4ccccc34)O[C@H](CC(N)=O)C(=O)N21 (stereo partly drawn) [Compound I-20, (3R,6S)-naphthalen-1-ylmethyl 3-(2-amino-2-oxoethyl)-6-butyl-8-isopentyl-4,7-dioxohexahydropyrazino[2,1-c][1,2,4]oxadiazine-1(6H)-carboxylate] | 66.1 |
| CC(C)CCN1CC2N(C(=O)OCc3cccc4ccccc34)O[C@H](CC(N)=O)C(=O)N2[C@@H](Cc2ccccc2)C1=O (stereo partly drawn) [Compound I-21, (3R,6S)-naphthalen-1-ylmethyl 3-(2-amino-2-oxoethyl)-6-benzyl-8-isopentyl-4,7-dioxohexahydropyrazino[2,1-c][1,2,4]oxadiazine-1(6H)-carboxylate] | 60 |
| CC(C)[C@@H]1ON(C(=O)OCc2cccc3ccccc23)C2CN(C(C)C)C(=O)[C@H](Cc3ccc(O)cc3)N2C1=O (stereo partly drawn) [Compound I-22, (3S,6S)-naphthalen-1-ylmethyl 6-(4-hydroxybenzyl)-3,8-diisopropyl-4,7-dioxohexahydropyrazino[2,1-c][1,2,4]oxadiazine-1(6H)-carboxylate] | 72.8 |
| CCCC[C@@H]1ON(C(=O)OCc2cccc3ccccc23)C2CN(C(C)C)C(=O)[C@H](Cc3ccc(O)cc3)N2C1=O (stereo partly drawn) [Compound I-23, (3S,6S)-naphthalen-1-ylmethyl 3-butyl-6-(4-hydroxybenzyl)-8-isopropyl-4,7-dioxohexahydropyrazino[2,1-c][1,2,4]oxadiazine-1(6H)-carboxylate] | 50.4 |
| CC(C)C[C@@H]1ON(C(=O)OCc2cccc3ccccc23)C2CN(C(C)C)C(=O)[C@H](Cc3ccc(O)cc3)N2C1=O (stereo partly drawn) [Compound I-24, (3S,6S)-naphthalen-1-ylmethyl 6-(4-hydroxybenzyl)-3-isobutyl-8-isopropyl-4,7-dioxohexahydropyrazino[2,1-c][1,2,4]oxadiazine-1(6H)-carboxylate] | 68.1 |
| CCCC[C@H]1C(=O)N(CCC(N)=O)CC2N(C(=O)OCc3cccc4ccccc34)O[C@@H](Cc3ccccc3)C(=O)N21 (stereo partly drawn) [Compound I-25, (3S,6S)-naphthalen-1-ylmethyl 8-(3-amino-3-oxopropyl)-3-benzyl-6-butyl-4,7-dioxohexahydropyrazino[2,1-c][1,2,4]oxadiazine-1(6H)-carboxylate] | 70.3 |
| CCCC[C@H]1C(=O)N(CC2CCCCC2)CC2N(C(=O)OCc3cccc4ccccc34)O[C@@H](CC(N)=O)C(=O)N21 (stereo partly drawn) [Compound I-26, (3S,6S)-naphthalen-1-ylmethyl 3-(2-amino-2-oxoethyl)-6-butyl-8-(cyclohexylmethyl)-4,7-dioxohexahydropyrazino[2,1-c][1,2,4]oxadiazine-1(6H)-carboxylate] | 68.4 |
| CC(C)CCN1CC2N(C(=O)OCc3cccc4ccccc34)O[C@@H](CC(N)=O)C(=O)N2[C@@H](CC2CCCCC2)C1=O (stereo partly drawn) [Compound I-27, (3S,6S)-naphthalen-1-ylmethyl 3-(2-amino-2-oxoethyl)-6-(cyclohexylmethyl)-8-isopentyl-4,7-dioxohexahydropyrazino[2,1-c][1,2,4]oxadiazine-1(6H)-carboxylate] | 62.9 |

same assay, conditions: Homo sapiens, 10 μM compound, Method 2 (40 nL of 1000× compound added to plate with Echo), read-out: inhibiton (%) at 10 μM

| Structure (SMILES) | inhibition at 10 µM [%] |
| --- | --- |
| CCCCCN1CC2N(C(=O)OCC3CCCCC3)O[C@H](Cc3ccccc3)C(=O)N2[C@@H](CCCCN)C1=O (stereo partly drawn) [Compound I-28, (3R,6S)-cyclohexylmethyl 6-(4-aminobutyl)-3-benzyl-4,7-dioxo-8-pentylhexahydropyrazino [2,1-c][1,2,4]oxadiazine-1(6H)-carboxylate] | 99.7 |
| NCCCC[C@H]1C(=O)N(CC2CCCCC2)CC2N(C(=O)OCC3CCCCC3)O[C@H](Cc3ccccc3)C(=O)N21 (stereo partly drawn) [Compound I-29, (3R,6S)-cyclohexylmethyl 6-(4-aminobutyl)-3-benzyl-8-(cyclohexylmethyl)-4,7-dioxohexahydropyrazino[2,1-c][1,2,4]oxadiazine-1(6H)-carboxylate] | 101 |
| CC(C)C[C@H]1ON(C(=O)OCC2CCCCC2)C2CN(CCc3ccccc3)C(=O)[C@H](CCCCN)N2C1=O (stereo partly drawn) [Compound I-30, (3R,6S)-cyclohexylmethyl 6-(4-aminobutyl)-3-isobutyl-4,7-dioxo-8-phenethylhexahydropyrazino [2,1-c][1,2,4]oxadiazine-1(6H)-carboxylate] | 117 |
| CC[C@H](C)CN1CC2N(C(=O)OCC3CCCCC3)O[C@H](CC(C)C)C(=O)N2[C@@H](CCCCN)C1=O (stereo partly drawn) [Compound I-31, (3R,6S)-cyclohexylmethyl 6-(4-aminobutyl)-3-isobutyl-8-((S)-2-methylbutyl)-4,7-dioxohexahydropyrazino[2,1-c][1,2,4]oxadiazine-1(6H)-carboxylate] | 67.1 |
| O=C1[C@H](CO)N2C(=O)[C@@H](Cc3ccccc3)ON(C(=O)OCC3CCCCC3)C2CN1CCc1ccc(O)cc1 (stereo partly drawn) [Compound I-32, (3R,6S)-cyclohexylmethyl 3-benzyl-6-(hydroxymethyl)-8-(4-hydroxyphenethyl)-4,7-dioxohexahydropyrazino[2,1-c][1,2,4]oxadiazine-1(6H)-carboxylate] | 59.8 |
| CC[C@H](C)OC(=O)N1O[C@H](Cc2ccccc2)C(=O)N2C1CN(CCc1cccc3ccccc13)C(=O)[C@@H]2CCCCN (stereo partly drawn) [Compound I-33, (3R,6S)-(S)-sec-butyl 6-(4-aminobutyl)-3-benzyl-8-(2-(naphthalen-1-yl)ethyl)-4,7-dioxohexahydropyrazino[2,1-c][1,2,4]oxadiazine-1(6H)-carboxylate] | 59.6 |
| CCCCCN1CC2N(C(=O)OCC(C)C)O[C@H](CC3CCCCC3)C(=O)N2[C@@H](CCCCN)C1=O (stereo partly drawn) [Compound I-34, (3R,6S)-isobutyl 6-(4-aminobutyl)-3-(cyclohexylmethyl)-4,7-dioxo-8-pentylhexahydropyrazino [2,1-c][1,2,4]oxadiazine-1(6H)-carboxylate] | 120 |
| CCCCOC(=O)N1O[C@H](CC2CCCCC2)C(=O)N2C1CN(CCC(C)C)C(=O)[C@@H]2CCCCN (stereo partly drawn) [Compound I-35, (3R,6S)-butyl 6-(4-aminobutyl)-3-(cyclohexylmethyl)-8-isopentyl-4,7-dioxohexahydropyrazino[2,1-c][1,2,4]oxadiazine-1(6H)-carboxylate] | 54 |
| COC(=O)N1O[C@H](CC2CCCCC2)C(=O)N2C1CN(CC1CCCCC1)C(=O)[C@@H]2CCCCN (stereo partly drawn) [Compound I-36, (3R,6S)-methyl 6-(4-aminobutyl)-3,8-bis(cyclohexylmethyl)-4,7-dioxohexahydropyrazino[2,1-c][1,2,4]oxadiazine-1(6H)-carboxylate] | 52.2 |
| CC(C)OC(=O)N1O[C@H](CC2CCCCC2)C(=O)N2C1CN(CCc1ccccc1)C(=O)[C@@H]2CCCCN (stereo partly drawn) [Compound I-37, (3R,6S)-isopropyl 6-(4-aminobutyl)-3-(cyclohexylmethyl)-4,7-dioxo-8-phenethylhexahydropyrazino [2,1-c][1,2,4]oxadiazine-1(6H)-carboxylate] | 87.3 |
| CC[C@H](C)OC(=O)N1O[C@H](CC2CCCCC2)C(=O)N2C1CN(CCc1ccccc1)C(=O)[C@@H]2CCCCN (stereo partly drawn) [Compound I-38, (3R,6S)-(S)-sec-butyl 6-(4-aminobutyl)-3-(cyclohexylmethyl)-4,7-dioxo-8-phenethylhexahydropyrazino [2,1-c][1,2,4]oxadiazine-1(6H)-carboxylate] | 97.3 |
